From ChEMBL document CHEMBL5335808, “Design, synthesis of new 3H-imidazo[4,5-b]pyridine derivatives and evaluation of their inhibitory properties as mixed lineage kinase 3 inhibitors” (Bioorg Med Chem Lett, 2024)

Tests used:
[1] = molecular target: T1, Mitogen-activated protein kinase kinase kinase 11 (Homo sapiens, UniProt Q16584); assay: Inhibition of human MLK3 by ATP-competitive binding assay
Target sequence in this assay (Q16584 whole entry): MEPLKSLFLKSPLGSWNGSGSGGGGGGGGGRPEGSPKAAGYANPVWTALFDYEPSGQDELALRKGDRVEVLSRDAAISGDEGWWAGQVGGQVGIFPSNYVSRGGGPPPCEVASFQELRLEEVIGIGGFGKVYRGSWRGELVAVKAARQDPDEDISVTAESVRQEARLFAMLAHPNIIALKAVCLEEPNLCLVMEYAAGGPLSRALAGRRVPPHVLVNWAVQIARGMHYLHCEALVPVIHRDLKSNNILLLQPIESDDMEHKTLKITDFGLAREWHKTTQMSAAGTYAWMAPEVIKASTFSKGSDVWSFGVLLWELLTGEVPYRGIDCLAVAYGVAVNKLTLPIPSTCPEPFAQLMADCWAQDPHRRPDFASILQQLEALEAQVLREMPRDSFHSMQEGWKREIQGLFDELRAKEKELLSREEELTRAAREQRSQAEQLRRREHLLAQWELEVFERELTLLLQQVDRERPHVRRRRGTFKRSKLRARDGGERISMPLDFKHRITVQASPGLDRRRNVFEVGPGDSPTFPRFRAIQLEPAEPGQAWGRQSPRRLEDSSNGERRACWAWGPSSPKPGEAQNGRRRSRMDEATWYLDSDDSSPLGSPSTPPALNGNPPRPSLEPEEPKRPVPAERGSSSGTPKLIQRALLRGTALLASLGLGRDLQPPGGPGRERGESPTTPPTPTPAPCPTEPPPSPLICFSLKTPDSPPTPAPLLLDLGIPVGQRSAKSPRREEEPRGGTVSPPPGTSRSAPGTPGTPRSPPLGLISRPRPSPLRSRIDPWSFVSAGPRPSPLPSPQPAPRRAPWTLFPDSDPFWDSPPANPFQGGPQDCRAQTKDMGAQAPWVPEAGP

[2] = Lipophilicity, LogP of the compound; type: physicochemical; conditions: octanol/water
[3] = Permeability of the compound by PAMPA method; type: ADME; conditions: read-out: Peff
[4] = molecular target: T1, Mitogen-activated protein kinase kinase kinase 11; assay: Inhibition of human MLK3 at 0.5 uM by ATP-competitive binding assay relative to control
Target sequence in this assay (Q16584 whole entry, looked up): as the sequence (Q16584 whole entry) above

SMILES | IC50 [1] [nM] | logP [2] | Papp [3] [×10⁻⁶ cm/s] | inhibition [4] [%]
CCS(=O)(=O)N1CC[C@H](Nc2c(Br)cnc3[nH]c(-c4cc(C)n(-c5cccc(C(=O)NCCN(C)C)c5)c4C)nc23)C1 | 27 | 4.81 | 3.42 | 
CCS(=O)(=O)N1CC[C@H](Nc2c(Br)cnc3nc(-c4cc(C)n(-c5cccc(NC(=O)CN6CCOCC6)c5C)c4C)[nH]c23)C1 |  | 4.28 | 47.8 | 
CCS(=O)(=O)N1CC[C@H](Nc2c(Br)cnc3[nH]c(-c4cc(C)n(-c5cc(NC(=O)CN6CCN(C)CC6)ccc5C)c4C)nc23)C1 |  | 5.89 |  | 
CCS(=O)(=O)N1CC[C@H](Nc2c(Br)cnc3[nH]c(-c4cc(C)n(-c5cc(C(=O)N6CCN(C)CC6)ccc5C)c4C)nc23)C1 |  | 5.06 | 35.7 | 
CCS(=O)(=O)N1CC[C@H](Nc2c(Br)cnc3[nH]c(-c4cc(C)n(-c5ccc(C(=O)N(C)CCN(C)C)cc5)c4C)nc23)C1 |  | 3.52 | 8.91 | 
CCS(=O)(=O)N1CC[C@H](Nc2c(Br)cnc3[nH]c(-c4cc(C)n(-c5ccc(NC(=O)CN(C)C)cc5C)c4C)nc23)C1 |  | 4.53 | 48.7 | 
CC(C)c1nn(C)cc1-c1nc2cc(Br)cnc2[nH]1 |  |  |  | 21
CCS(=O)(=O)N1CC[C@H](Nc2c(Br)cnc3[nH]c(-c4cc(C)n(-c5ccc(C(=O)NCCN(C)C)cc5)c4C)nc23)C1 |  | 3.86 | 2.53 | 
CCS(=O)(=O)N1CC[C@H](Nc2c(Br)cnc3[nH]c(-c4cc(C)n(-c5ccc(C(=O)N6CCN(C)CC6)cc5C)c4C)nc23)C1 | 25 | 5.16 | 13.9 | 
CCS(=O)(=O)N1CC[C@H](Nc2c(Br)cnc3[nH]c(-c4cc(C)n(-c5cccc(C(=O)N6CCOCC6)c5)c4C)nc23)C1 | 6 | 3.69 | 15.2 | 
CCS(=O)(=O)N1CC[C@H](Nc2c(Br)cnc3nc(-c4cc(C)n(-c5cccc(C(=O)NCCN(C)C)c5C)c4C)[nH]c23)C1 |  | 4.86 | 21.2 | 
CCS(=O)(=O)N1CC[C@H](Nc2c(Br)cnc3nc(-c4cc(C)n(-c5cccc(NC(=O)CN(C)C)c5C)c4C)[nH]c23)C1 |  | 5.17 | 55.9 | 
CCS(=O)(=O)N1CC[C@H](Nc2c(Br)cnc3[nH]c(-c4cc(C)n(-c5ccc(C(=O)N6CCOCC6)cc5)c4C)nc23)C1 | 6 | 3.92 | 13.1 | 
O=C1Nc2ccc3ncsc3c2/C1=C/c1c[nH]cn1 | 144 |  |  | 
